Data published in publication PMC9570599, “Kribbellichelins A and B, Two New Antibiotics from Kribbella sp. CA-293567 with Activity against Several Human Pathogens” (Molecules, 2022).
Values after ≈ are worked out from the molar mass of the structure shown. Values joined by “and” are separate entries in the source; they are usually repeats but may differ in a detail not shown here. Equal values may be shown once. “Also recorded” adds a separate entry of the source. Read-outs that look alike come from different tables or passages of the source.

Assays:
A. baumannii MB-5973 = experiment: Gram-negative antibacterial growth inhibition assay, A. baumannii; assay type: cell-based, Acinetobacter baumannii; conditions: for maximum activity of growth inhibition plateau, A. baumannii: at concentrations higher than 10 µg/mL; for activity against A. baumannii (in words): pure compound, up to 128 µg/mL
Description: (§1) Purification fractions and purified compounds 1–3 and 5 were tested against a wide panel of antimicrobial assays for the growth inhibition of human pathogens including MRSA MB-5393, A. baumannii MB-5973, P. aeruginosa MB-5919, A. fumigatus ATCC-46645, and C. albicans ATCC-64124 as 10-point curves with 1:2 dilutions starting at 128 μg/mL in duplicate, following previously described methodologies. Most of the pathogens were acquired from the American Type Culture Collection (ATCC)(Manassas, VA, USA), except for those already present in our MEDINA bacteria collection (MB). Pathogen panel investigated was selected according to typical reference strains and procedures indicated by the […].
(§2) Gram-negative antibacterial assay was performed following this procedure; thawed stock inoculum from vials was streaked onto MHII agar plates and incubated overnight at 37 °C. Isolated colonies were selected and inoculated in 25 mL of MHII liquid growth medium in 250 mL Erlenmeyer flasks overnight at 37 °C. MHII liquid growth medium was used in a 96-well plate assay, adjusting at 5 × 10^5 colony forming units (cfu)/mL (OD600 nm).
(§3) For the assay, 90 μL/well of the diluted inoculum was mixed with 1.6 μL/well of compound dissolved in DMSO and 8.4 μL/well of MHII or BHI medium for Gram-negative and Gram-positive strains, respectively. Vancomycin was included as an internal plate control for MRSA. A rifampicin, aztreonam, and amphotericin B dose-response curve was used as a positive control against P. aeruginosa, A. baumannii and A. fumigatus, and C. albicans, respectively. Each compound was tested as a 10-point dose-response curve by 1:2 serial dilutions in DMSO starting at 128 µg/mL in duplicate. Total growth was measured using the EnVision® (Redwood City, CA, USA) Multilabel plate reader (Perkin Elmer) with two readings, one at initial time and one after which the microorganism was incubated at 37 °C for 18–20 hours. For the A. fumigatus assay, total growth was measured with a single reading after the incubation.

A. fumigatus ATCC-46645 = experiment: Antifungal growth inhibition assay, A. fumigatus; assay type: cell-based, Aspergillus fumigatus; conditions: for inhibition at 7.2 µg/mL / IC50: Aspergillus fumigatus; for inhibition at 7.2 µg/mL: at 7.2 µg/mL (optimal concentration), atypical profile, Eagle effect, read-out: maximum inhibition against A. fumigatus; for decreasing inflection point against A. fumigatus: less inhibition at higher concentrations (Eagle effect)
Description: as §1
(§4) The antifungal assay was performed following this methodology; briefly, a thawed stock inoculum suspension from a cryovial of A. fumigatus and C. albicans was streaked onto PDA and Sabouraud Dextrose Agar medium, respectively, and suspended in RPMI-1640 modified medium and incubated at 37 °C for 24 h. Spores concentration of A. fumigatus was determined by counting in Neubauer chamber in order to dilute the culture and obtain an assay inoculum of 2.5 × 10^4 spores/mL. For C. albicans, the OD660 was adjusted to 0.25 using RPMI-1640 modified as diluent and blank. Then, a dilution from the adjusted inoculum was prepared at 1/100 to inoculate 96-well assay plates.
as §3

[1] = system: human hepatoma cell line HepG2 (ATCC HB-8065); experiment: MTT cytotoxicity bioassay; assay type: cell-based; conditions: 72 h; for cytotoxicity against HepG2 (in words): up to 40 µg/mL
Description: Pure compounds were assayed against the human hepatoma cell line HepG2 (ATCC HB-8065) in an MTT test as 20-point curves with 1:2 dilutions starting at 40 μg/mL in triplicate. Cells were seeded at 10.000 cells/well in a 96-well plate (Corning 96-well TC-treated microplates) for 24 h and after addition of compounds 1–3 and 5 plates were incubated for 72 h. MMS (methylmethanesulfonate, Sigma-Aldrich, 4 mM) was used as the positive control, and DMSO 0.5% as the negative control. After addition of MMT dye (thiazolyl blue tetrazoliumbromide, ACROS Organics), cells were incubated for 2–3 h and supernatant was removed. Resulting formazan crystals were finally dissolved by means of 100 µL DMSO (100%) and absorbance was measured at 570 nm. The obtained data was analyzed using Genedata Screener software (Genedata, Inc., Basel, Switzerland) and Prim 9.4.1 software, from GraphPad was used for titrations representation.

MRSA MB-5393 = experiment: Gram-positive antibacterial growth inhibition assay, MRSA; assay type: cell-based, methicillin-resistant Staphylococcus aureus; conditions: for activity against MRSA (in words): pure compound, up to 128 µg/mL
Description: as §1
For Gram-positive MRSA, a thawed stock inoculum suspension from a cryovial of this microorganism was streaked onto brain heart infusion (BHI) agar plate and incubated at 37 °C overnight to obtain isolated colonies. Single colonies were inoculated into 10 mL of BHI broth medium in 250 mL Erlenmeyer flask and incubated overnight at 37 °C with shaking at 220 rpm and then diluted in order to obtain an assay inoculum of 1.1 × 10^6 CFU/mL [52].
as §3

P. aeruginosa MB-5919 = experiment: Gram-negative antibacterial growth inhibition assay, P. aeruginosa; assay type: cell-based, Pseudomonas aeruginosa; conditions: for maximum activity of growth inhibition plateau, P. aeruginosa: at concentrations higher than 10 µg/mL; for activity against P. aeruginosa (in words): pure compound, up to 128 µg/mL
Description: as §1, §2, §3

C. albicans ATCC-64124 = experiment: Antifungal growth inhibition assay, C. albicans; assay type: cell-based, Candida albicans
Description: as §1, §4, §3

Bacillus subtilis = system: Bacillus subtilis; set-up: method as in PMID 8436549; conditions: previously reported; cited from earlier work
S. aureus = system: S. aureus; set-up: method as in PMID 8436549; conditions: previously reported; cited from earlier work
Streptococcus faecalis = system: Streptococcus faecalis; set-up: method as in PMID 8436549; conditions: previously reported; cited from earlier work
Saccharomyces cerevisiae = system: Saccharomyces cerevisiae; set-up: method as in PMID 28074052; conditions: previously reported; cited from earlier work

Row | SMILES | maximum activity of growth inhibition plateau, A. baumannii (A. baumannii MB-5973) [%] | activity against A. baumannii (in words) (A. baumannii MB-5973) | inhibition at 7.2 µg/mL (A. fumigatus ATCC-46645; ATCC46645) [%] | decreasing inflection point against A. fumigatus (A. fumigatus ATCC-46645) [µg/mL] | cytotoxicity against HepG2 (in words) [1] | activity against MRSA (in words) (MRSA MB-5393) | maximum activity of growth inhibition plateau, P. aeruginosa (P. aeruginosa MB-5919) [%] | activity against P. aeruginosa (in words) (P. aeruginosa MB-5919) | also measured
1 | COC(=O)c1cc(O)c(O)c(C(=O)NCCC(=O)N[C@@H](CCCN(O)C(=O)[C@H](CO)NC(=O)CCNC(=O)c2nc(C(=O)OC)cc(O)c2O)C(=O)O)n1 [Compound 1, kribbellichelin A] | 45 | minor inhibitory properties | 40 | ~50 | nor significant cytotoxic activity; also recorded: no relevant cytotoxicity | no activity | 30 | minor inhibitory properties | IC50 versus C. albicans (C. albicans ATCC-64124; C. albicans ATCC-64124, 10-point curve from 128 µg/mL, duplicate): 11.72 µg/mL (≈ 15.3 µM); IC50 (C. albicans ATCC-64124; C. albicans ATCC-64124, molar value in brackets, read-out: IC50 versus C. albicans): 15.3 µM; IC50 (C. albicans ATCC-64124; Candida albicans, ATCC64124, C. albicans ATCC-64124, 10-point curve from 128 µg/mL, duplicate, read-out: IC50 versus C. albicans): 11.7 µg/mL; IC50 (C. albicans ATCC-64124; Candida albicans, ATCC64124, C. albicans ATCC-64124, molar value in brackets, read-out: IC50 versus C. albicans): 15.2 µM
2 | COC(=O)c1cc(O)c(O)c(C(=O)NCCC(=O)N[C@@H](CCCN(O)C(=O)[C@H](CO)NC(=O)CCNC(=O)c2nc(C(=O)OC)cc(O)c2O)C(=O)OC)n1 [Compound 2, kribbellichelin B] | 45 | minor inhibitory properties | 40 | ~50 | nor significant cytotoxic activity; also recorded: no relevant cytotoxicity | no activity | 30 | minor inhibitory properties | –
3 | CC(C)[C@H]1C(=O)OC[C@@H](NC(=O)c2nc3ccccc3cc2O)C(=O)N2CCCC[C@H]2C(=O)NCC(=O)N(C)CC(=O)N(C)[C@@H](C(C)C)C(=O)OC[C@@H](NC(=O)c2nc3ccccc3cc2O)C(=O)N2CCCC[C@@H]2C(=O)NCC(=O)N(C)CC(=O)N1C [Compound 3, sandramycin] | – | no antibacterial activity | – | – | – | – | – | no antibacterial activity | IC50 (A. fumigatus ATCC-46645; ATCC46645, read-out: IC50 against A. fumigatus): 5.72 µg/mL and 4.69 µM; ED50 cytotoxic activity against HepG2 ([1]; molar value in brackets): 0.00129 µM; antibiotic activity versus Bacillus subtilis (in words) (Bacillus subtilis): strong antibiotic activity; IC50 (MRSA MB-5393; Staphylococcus aureus, MRSA, read-out: IC50 versus MRSA MB-5393): 0.31 µg/mL and 250 nM; antibiotic activity versus S. aureus (in words) (S. aureus): strong antibiotic activity; IC50 (C. albicans ATCC-64124; Candida albicans, ATCC64124, read-out: IC50 versus C. albicans): 7.55 µg/mL and 6.19 µM; antibiotic activity versus Streptococcus faecalis (in words) (Streptococcus faecalis): strong antibiotic activity
4 | CC(C)CCCCCCCCCCCCCOC[C@@H](O)CO[C@H]1O[C@H](C(=O)O)[C@@H](O[C@H]2O[C@H](CO)[C@@H](O)[C@H](O)[C@H]2O)[C@H](O)[C@H]1O [Compound 5, kribelloside C] | – | no activity | – | – | no relevant cytotoxicity | no activity | – | no activity | IC50 (A. fumigatus ATCC-46645; ATCC46645, A. fumigatus ATCC-46645, read-out: IC50 against A. fumigatus): 13.7 µg/mL (≈ 20.8 µM); antifungal activity versus Saccharomyces cerevisiae (in words) (Saccharomyces cerevisiae): interesting activities as an antifungal agent; activity against C. albicans (in words) (C. albicans ATCC-64124; pure compound, up to 128 µg/mL): no activity; also recorded: not observed
